“Also recorded” adds a separate entry of the source.
Experiments:
PBMC (in vitro primed) = assay: IFN-gamma ELIspot after 2 rounds of in vitro priming of human PBMC; type: cell-based; conditions: donor H03
Experimental: Human PBMCs are repeatedly stimulated with antigen (peptide or peptide mixture) in the presence of IL-2 and IL-7. This leads to the selective oligoclonal expansion of antigen-specific T cells. Responses against individual epitopes can be assessed for instance by IFN-γ ELIspot assays. Freshly thawed PBMCs were cultured in 6 well plates (2-4×10^6/mL viable cells) in RPMI-1640 (GibcoBRL), 1% non-essential amino acids (GibcoBRL, cat# 11140-035), 1% Penicillin (10,000 U/ml)-Streptomycin (10,000 μg/ml) (GibcoBRL, cat#15140-122), 1% L-Glutamine (GibcoBRL), 0.1% beta-mercapto-ethanol (GibcoBRL), 1% Na-pyruvate (GibcoBRL), plus 10% Human AB serum (PAA, Linz, Austria). Peptides (10 μM each) were added to each well. rhIL-7 (Strathmann Biotech) was added at 10 ng/mL final concentration. 20-30 U/mL rhIL-2 (Strathmann Biotech) were added on day 4. On day 10, all cells were removed from plates, washed once in media (as above), and counted. For the next cycle of in vitro priming, viable cells were co-cultivated with autologous gamma irradiated (1.2 gray/min, for 20 minutes) PBMC as feeders (plated at 100,000 per well) and peptides, rh-IL-2 as described above. ELIspot was done as described above, except that 200,000 responder cells (pre-stimulated for 2 rounds of in vitro priming) were used together with 60,000 autologous irradiated […] cells.

HLA-DRB1*0101 = HLA-DRB1*0101 (Homo sapiens, UniProt P01903+P01911, A100R/D57E/F55L/F60I/F76Y/I96L/L162R/M171V/P40L/Q125E/R42F/V115G/Y59C); assay: Epitope capture / peptide binding, SDS-stability assay, soluble DRB1*0101; conditions: soluble HLA class II, individual peptide confirmed (Table 2)
[1] = system: HLA-DRB1*0401 transgenic mice; assay: Immunization of HLA-DRB1*0401 transgenic mice (peptide + CpI), splenocyte IFN-gamma ELISpot; type: in vivo, mouse; conditions: for immunogenicity in HLA-DRB1*0401 transgenic mice (in words): Example II, IFN-gamma ELISpot of splenocytes; for Immunogenicity, peptide-specific IFN-gamma-producing cells, DRB1*0401: HLA-DRB1*0401 transgenic mice, splenocytes
How it was run: (§1)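 Groups of three female 8-week-old transgenic mice were given 100 μg peptide plus 30 μg CpI oligodinucleotide subcutaneously in the flank. Splenocytes (1×10^6–3×10^5/well) were restimulated overnight at 37 °C with the immunizing peptide, control peptides or medium, and IFN-gamma spots counted by ELISpot; + = <100, ++ = >100 peptide-specific cells per million splenocytes.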

[2] = system: HLA-A*0201 transgenic mice; assay: Immunization of HLA-A*0201 transgenic mice (peptide + CpI), splenocyte IFN-gamma ELISpot; type: in vivo, mouse; conditions: for immunogenicity in HLA-A*0201 transgenic mice (in words): Example II, IFN-gamma ELISpot of splenocytes; for Immunogenicity, peptide-specific IFN-gamma-producing cells, A*0201: HLA-A*0201 transgenic mice, splenocytes
How it was run: as §1

[3] = system: HLA-B*0702 transgenic mice; assay: Vaccination of HLA-B*0702 transgenic mice (peptide + IC31), IFN-gamma ELISpot with spleen cells and CD8+ fraction; type: in vivo, mouse; conditions: for Immunogenicity, peptide-specific IFN-gamma-producing cells, B*0702: HLA-B*0702 transgenic mice, splenocytes; for specific INF-γ producing T cells / HLA-B*0702 epitope in HLA-B*0702 transgenic mice (in words): peptide + IC31, whole spleen cells and CD8+ fraction
How it was run: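 Transgenic mice (groups of 5, male, 8–14 weeks) vaccinated s.c. in hind footpads with 100 μg peptide + IC31; 6 days later pooled splenocytes or MACS-purified CD8+ (A2, B7) or CD4+ (DR4) fractions restimulated overnight with peptide. IFN-gamma spots counted by ELISpot, 1×10^6–3×10^5 cells/well.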

[4] = system: HLA-DRB1*0401 transgenic mice; assay: Vaccination of HLA-DRB1*0401 transgenic mice (peptide + IC31), IFN-gamma ELISpot with spleen cells and CD4+ fraction; type: in vivo, mouse; conditions: peptide + IC31, whole spleen cells and CD4+ fraction
Experimental: Mouse splenocyte ELIspot assay for single cell IFN-gamma release ELISpot plates (MAHA S4510, Millipore, Germany) were rinsed with PBS (200 μl/well), coated with anti-mouse IFN-gamma mAb (clone R46A2; 100 μl/well of 5 μg/ml in 0.1 M NaHCO3, pH 9.2-9.5) and incubated overnight at 4° C. Plates were washed four times with PBS/0.1% Tween 20 and incubated with PBS/1% BSA (200 μl/well) at room temperature for 2 h to block nonspecific binding. Spleen cells from vaccinated mice were prepared and plated at 1×10^6-3×10^5 cells/well and incubated overnight at 37° C./5% CO2 either in the presence of the immunizing antigen (peptide), control peptides or with medium alone. Subsequently, plates were washed four times and incubated with biotinylated anti-mouse IFN-gamma mAb (clone AN18.17.24, 100 μl/well of 2 μg/ml in PBS/1% BSA) for 2 h at 37° C. After washing, streptavidin-peroxidase (Roche Diagnostics, Vienna, Austria) was added ( 1/5000 in PBS, 100 μl/well) and plates were incubated at room temperature for 2 additional hours. Subsequently, substrate was added to the washed plates (100 μl/well of a mixture of 10 ml 100 mM Tris pH 7.5 supplemented with 200 μl of 40 mg/ml DAB stock containing 50 μl of 80 mg/ml NiCl2 stock and 5 μl of 30% H2O2). The reaction was stopped after 20-30 minutes by washing the plates with tap water. Dried plates were evaluated with an ELISpot reader (BIOREADER 2000, BioSys, Karben, Germany).
Groups of 5 mice (HLA-A*0201-, HLA-DRB1*0401- and HLA-B*0702 transgenic mice, male, 8-14 weeks of age) were injected subcutaneous into the hind footpads with 100 μg of peptide +IC31 per mouse (50 μg per footpad). (PCT/EP01/12041, WO 02/32451 A1 and PCT/EP01/06433, WO 01/93905 A1; IC31 is a combination of the immunizer disclosed in WO 01/93905 and WO 02/32451).
6 days after vaccination single cell suspension of pooled spleens were prepared and additionally pure fractions of CD8+ in the case of A2 and B7 tg mice (CD8+ fraction for B7 mice containing 97% of CD8 and 1.5% of CD4 cells and for A2 tg mice 83% of CD8 and 8% of CD4 cells) and CD4+ for DR4tg mice (CD4+ fraction for DR4tg mice containing 98% of CD4 cells and 0.2% of CD8 cells) were separated from the spleen cell suspension using MACS separating kit (Miltenyi, Germany).

HLA class II = HLA class II coverage of hotspots and epitopes, compiled from the Examples and Tables of this specification (epitope capture, HLA-transgenic animals, in vitro stimulation of human mononuclear cells); conditions: source data: Examples and Tables within this specification
From the text: Thus, as even individual T-cell epitopes are not obvious within the sequence of a polypeptide, the same is even more the case for hotspots. Several radically different experimental approaches are combined according to the present invention for T-cell epitope identification, including epitope capture, HLA-transgenic animals and in vitro stimulation of human mononuclear cells. All three approaches are systematically applied on overlapping peptides spanning the antigen of interest, enabling comprehensive identification of epitopes (refer to CMV Epitope Capture patent). Upon such a comprehensive analysis, not limited to a particular HLA allele, but rather unravelling all possibly targeted epitopes within a population, epitope hotspots may become apparent. Within an antigen, only few if any sequences show characteristics of hotspots. Thus the identification of a hotspot is always a surprising event.

HLA-DRB1*0404 = HLA-DRB1*0404 (Homo sapiens, UniProt P01903+P01911, A100R/A169T/F76Y/I96L/K127E/L162R/M171V/N62H/P40V/Q125Y/R42H/S133A/S149N/S66Y/V209L/W38E); assay: Epitope capture / peptide binding, SDS-stability assay, soluble DRB1*0404; conditions: soluble HLA class II, individual peptide confirmed (Table 2)

Sequence | peptide-specific IFN-gamma secreting T-cells, donor H03, after 2 rounds of in vitro stimulation (PBMC (in vitro primed)) [T-cells/10^6 PBMC] | Binding to DRB1 *0101 (HLA-DRB1*0101) | immunogenicity in HLA-DRB1*0401 transgenic mice (in words) [1] | Immunogenicity, peptide-specific IFN-gamma-producing cells, DRB1*0401 [1] | immunogenicity in HLA-A*0201 transgenic mice (in words) [2] | Immunogenicity, peptide-specific IFN-gamma-producing cells, A*0201 [2] | Immunogenicity, peptide-specific IFN-gamma-producing cells, B*0702 [3] | specific INF-γ producing T cells / HLA-B*0702 epitope in HLA-B*0702 transgenic mice (in words) [3] | specific INF-γ producing T cells / HLA-DRB1*0401 epitope in HLA-DRB1*0401 transgenic mice (in words) [4] | HLA-class II coverage (HLA class II) | Binding to DRB1 *0404 (HLA-DRB1*0404)
TNPKPQRKTKRNTNR [Peptide A3] | 80 | – | – | – | – | – | – | – | – | – | –
YLVAYQATVCARAXAPPPSWD (YLVAYQATVCARAKAPPPSWD) [Peptide 1623] | – | * (weak binding) | immunogenic; also recorded: immunogenicity | + (immunogenic (+, less than 100 peptide-specific cells among a million splenocytes)) | immunogenic | + (immunogenic (+, less than 100 peptide-specific cells among a million splenocytes)) | + (immunogenic (+, less than 100 peptide-specific cells among a million splenocytes)) | HLA-B*0702 epitopes with T-cell activating capacity | confirmed to contain human HLA-DRB1*0401 epitopes | – | –
PKPQRKTKRNTNRRP [Peptide A5] | 110 | – | – | – | – | – | – | – | – | – | –
YLVAYQATVCARAQAPPPSWD [Peptide 1547] | – | – | immunogenic; also recorded: immunogenicity | ++ (strongly immunogenic (++, more than 100 peptide-specific cells among a million splenocytes)) | – | – | – | HLA-B*0702 epitopes with T-cell activating capacity | confirmed to contain human HLA-DRB1*0401 epitopes | DR1,4,7,11 | –
CGYRRCRASGVLTTS [Peptide 1558] | – | – | immunogenic; also recorded: immunogenicity | ++ (strongly immunogenic (++, more than 100 peptide-specific cells among a million splenocytes)) | immunogenicity | + (immunogenic (+, less than 100 peptide-specific cells among a million splenocytes)) | ++ (strongly immunogenic (++, more than 100 peptide-specific cells among a million splenocytes)) | HLA-B*0702 epitopes with T-cell activating capacity | confirmed to contain human HLA-DRB1*0401 epitopes | – | nb (no binding)
FWAKHMWNFISGIQYLAGLSTLPGNPAVASMMAF [Peptide 1592] | – | – | immunogenicity | ++ (strongly immunogenic (++, more than 100 peptide-specific cells among a million splenocytes)) | immunogenicity | ++ (strongly immunogenic (++, more than 100 peptide-specific cells among a million splenocytes)) | + (immunogenic (+, less than 100 peptide-specific cells among a million splenocytes)) | HLA-B*0702 epitopes with T-cell activating capacity | confirmed to contain human HLA-DRB1*0401 epitopes | – | –
PQRKTKRNTNRRPQD [Peptide A7] | 70 | – | – | – | – | – | – | – | – | – | –
PVNSWLGNIIQYAPT [Peptide 1560] | – | – | immunogenicity | + (immunogenic (+, less than 100 peptide-specific cells among a million splenocytes)) | immunogenicity | ++ (strongly immunogenic (++, more than 100 peptide-specific cells among a million splenocytes)) | – | – | confirmed to contain human HLA-DRB1*0401 epitopes | – | –
PVNSWLGNIIMYAPT [Peptide 1559] | – | – | immunogenicity | + (immunogenic (+, less than 100 peptide-specific cells among a million splenocytes)) | immunogenicity | ++ (strongly immunogenic (++, more than 100 peptide-specific cells among a million splenocytes)) | – | – | confirmed to contain human HLA-DRB1*0401 epitopes | – | –
IQLINTNGSWHINRTALNCNDSL [Peptide 1654] | – | – | immunogenicity | ++ (strongly immunogenic (++, more than 100 peptide-specific cells among a million splenocytes)) | immunogenicity | + (immunogenic (+, less than 100 peptide-specific cells among a million splenocytes)) | – | – | confirmed to contain human HLA-DRB1*0401 epitopes | – | –
